Reference: US20250289787A1, “HERBICIDAL 2-OXO-NICOTINIC ACID DERIVATIVES” (SYNGENTA CROP PROTECTION AG, priority 2022, published 2025)

Legend:
Format in all cases: in vivo
Set-up in all cases: key: 5=81-100%; 4=61-80%; 3=41-60%; 2=21-40%; 1=1-20%; 0=no damage to the plant; -=not tested
[1] = test system: Echinochloa crus-galli (ECHCG); assay: Post-emergence test, herbicidal damage; settings: sprayed after 8 days cultivation, 1000 g/ha unless otherwise stated, evaluated after 13 days, five-point scale
Description: (§1) Seeds of a variety of test species are sown in standard soil in pots Amaranthus palmeri (AMAPA), (Amaranthus retoflexus (AMARE), Echinochloa crus-galli (ECHCG), Zea mays (ZEAMX), Ipomoea 5 hederacea (IPOHE), and Setaria faberi (SETFA). After 8 days cultivation under controlled conditions in a glasshouse (at 24° C./16° C., day/night; 14 hours light; 65% humidity), the plants are sprayed with an aqueous spray solution derived from the formulation of the technical active ingredient in acetone/water (50:50) solution containing 0.5% Tween 20 (polyoxyethelyene sorbitan monolaurate, CAS RN 9005-64-5). Compounds are applied at 1000 g/ha unless otherwise stated. The test plants are then grown in a glasshouse under controlled conditions in a glasshouse (at 24° C./16° C., day/night; 14 hours light; 65% humidity) and watered twice daily. After 13 days the test is evaluated for the percentage damage caused to the plant. The biological activities are shown in the following table on a five-point scale (5=81-100%; 4=61-80%; 3=41-60%; 2=21-40%; 1=1-20%; 0=no damage to the plant; -=not tested).

Zea mays (ZEAMX) [2] = assay: Post-emergence test, herbicidal damage; settings: sprayed after 8 days cultivation, 1000 g/ha unless otherwise stated, evaluated after 13 days, five-point scale
Description: as §1

Setaria faberi (SETFA) [3] = assay: Post-emergence test, herbicidal damage; settings: sprayed after 8 days cultivation, 1000 g/ha unless otherwise stated, evaluated after 13 days, five-point scale
Description: as §1

[4] = test system: Amaranthus palmeri (AMAPA); assay: Post-emergence test, herbicidal damage; settings: sprayed after 8 days cultivation, 1000 g/ha unless otherwise stated, evaluated after 13 days, five-point scale
Description: as §1

[5] = test system: Amaranthus retoflexus (AMARE); assay: Post-emergence test, herbicidal damage; settings: sprayed after 8 days cultivation, 1000 g/ha unless otherwise stated, evaluated after 13 days, five-point scale
Description: as §1

[6] = test system: Ipomoea hederacea (IPOHE); assay: Post-emergence test, herbicidal damage; settings: sprayed after 8 days cultivation, 1000 g/ha unless otherwise stated, evaluated after 13 days, five-point scale
Description: as §1

[7] = test system: Amaranthus retoflexus (AMARE); assay: Pre-emergence test, herbicidal damage; settings: 1000 g/ha unless otherwise stated, evaluated after 13 days, five-point scale
[8] = test system: Amaranthus palmeri (AMAPA); assay: Pre-emergence test, herbicidal damage; settings: 1000 g/ha unless otherwise stated, evaluated after 13 days, five-point scale
Setaria faberi (SETFA) [9] = assay: Pre-emergence test, herbicidal damage; settings: 1000 g/ha unless otherwise stated, evaluated after 13 days, five-point scale
[10] = test system: Echinochloa crus-galli (ECHCG); assay: Pre-emergence test, herbicidal damage; settings: 1000 g/ha unless otherwise stated, evaluated after 13 days, five-point scale
Zea mays (ZEAMX) [11] = assay: Pre-emergence test, herbicidal damage; settings: 1000 g/ha unless otherwise stated, evaluated after 13 days, five-point scale
[12] = test system: Ipomoea hederacea (IPOHE); assay: Pre-emergence test, herbicidal damage; settings: 1000 g/ha unless otherwise stated, evaluated after 13 days, five-point scale

Row | Compound | percentage damage caused to the plant, ECHCG [1] | percentage damage caused to the plant, ZEAMX (Zea mays (ZEAMX) [2]) | percentage damage caused to the plant, SEFTA (Setaria faberi (SETFA) [3]) | percentage damage caused to the plant, AMAPA [4] | percentage damage caused to the plant, AMARE [5] | percentage damage caused to the plant, IPOHE [6] | percentage damage caused to the plant, AMARE [7] | percentage damage caused to the plant, AMAPA [8] | percentage damage caused to the plant, SEFTA (Setaria faberi (SETFA) [9]) | percentage damage caused to the plant, ECHCG [10] | percentage damage caused to the plant, ZEAMX (Zea mays (ZEAMX) [11]) | percentage damage caused to the plant, IPOHE [12]
1 | Cc1cc(-c2ccc(Cl)c(Cl)c2)c(C(=O)O)c(=O)[nH]1 [Compound 7, 4-(3,4-dichlorophenyl)-6-methyl-2-oxo-1H-pyridine-3-carboxylic acid] | 0 | 0 | 0 | 0 | 0 | 0 | 0 | 0 | 0 | 0 | 0 | 0
2 | C=Cc1c(C)[nH]c(=O)c(C(=O)O)c1-c1ccc(Cl)c(Cl)c1 [Compound 8, 4-(3,4-dichlorophenyl)-6-methyl-2-oxo-5-vinyl-1H-pyridine-3-carboxylic acid] | 1 (1=1-20%) | 1 (1=1-20%) | 1 (1=1-20%) | 1 (1=1-20%) | 1 (1=1-20%) | 1 (1=1-20%) | 0 | 1 (1=1-20%) | 0 | 0 | 0 | 0
3 | Cc1[nH]c(=O)c(C(=O)O)c(-c2ccc(Cl)c(Cl)c2)c1C [Compound 9, 4-(3,4-dichlorophenyl)-5,6-dimethyl-2-oxo-1H-pyridine-3-carboxylic acid] | 0 | 0 | 0 | 1 (1=1-20%) | 1 (1=1-20%) | 1 (1=1-20%) | 0 | 0 | 0 | 0 | 0 | 0
4 | CCc1c(C)[nH]c(=O)c(C(=O)O)c1-c1ccc(Cl)c(Cl)c1 [Compound 10, 4-(3,4-dichlorophenyl)-5-ethyl-6-methyl-2-oxo-1H-pyridine-3-carboxylic acid] | 0 | 0 | 0 | 0 | 0 | 0 | 0 | 0 | 0 | 0 | 0 | 0
5 | Cc1[nH]c(=O)c(C(=O)O)c(-c2ccc(Cl)c(Cl)c2)c1C#N [Compound 11, 5-cyano-4-(3,4-dichlorophenyl)-6-methyl-2-oxo-1H-pyridine-3-carboxylic acid] | 0 | 0 | 0 | 0 | 0 | 0 | 0 | 0 | 0 | 0 | 0 | 0
6 | Cc1c(-c2ccc(Cl)c(Cl)c2)c(C(=O)O)c(=O)n(C)c1C [Compound 12, 4-(3,4-dichlorophenyl)-1,5,6-trimethyl-2-oxo-pyridine-3-carboxylic acid] | 1 (1=1-20%) | 0 | 1 (1=1-20%) | 2 (2=21-40%) | 1 (1=1-20%) | 1 (1=1-20%) | 0 | 1 (1=1-20%) | 2 (2=21-40%) | 1 (1=1-20%) | 0 | 0
7 | Cc1cc(-c2ccc(Cl)c(Cl)c2)c(C(=O)O)c(=O)n1-c1ccc(Cl)cc1F [Compound 13, 1-(4-chloro-2-fluoro-phenyl)-4-(3,4-dichlorophenyl)-6-methyl-2-oxo-pyridine-3-carboxylic acid] | 0 | 1 (1=1-20%) | 0 | 3 (3=41-60%) | 2 (2=21-40%) | 0 | 2 (2=21-40%) | 2 (2=21-40%) | 0 | 2 (2=21-40%) | 0 | 0
8 | Cc1cc(-c2ccc(Cl)c(Cl)c2)c(C(=O)O)c(=O)n1-c1cccc(C(F)(F)F)c1 [Compound 15, 4-(3,4-dichlorophenyl)-6-methyl-2-oxo-1-[3-(trifluoromethyl)phenyl]pyridine-3-carboxylic acid] | 1 (1=1-20%) | 1 (1=1-20%) | 2 (2=21-40%) | 4 (4=61-80%) | 4 (4=61-80%) | 1 (1=1-20%) | 4 (4=61-80%) | 4 (4=61-80%) | 2 (2=21-40%) | 0 | 0 | 0
9 | Cc1cc(-c2ccc(Cl)c(Cl)c2)c(C(=O)O)c(=O)n1-c1ccc(F)cc1 [Compound 16, 4-(3,4-dichlorophenyl)-1-(4-fluorophenyl)-6-methyl-2-oxo-pyridine-3-carboxylic acid] | 1 (1=1-20%) | 1 (1=1-20%) | 2 (2=21-40%) | 2 (2=21-40%) | 1 (1=1-20%) | 1 (1=1-20%) | 0 | 0 | 0 | 0 | 0 | 0
